Holding throughout (type): physicochemical
Data set [1] is described as follows: Thermodynamic aqueous solubility. The settings on record: aqueous, thermodynamic from solid.
Data set [2] in a line: Stability on standing at ambient/room conditions. The source says: The bis-sulfuric acid salt is difficult to crystallise in an anhydrous environment. The experiment in methanol produced a clear solution, which then became an oil after solvent evaporation.
A short description of data set [3]: Storage at 40° C./75% RH (solid-state stability). As to conditions: for Stability on storage at 40° C./75% RH: 1 week, solid form by XRPD.
Experimental: The crystalline solids were filtered, dried at ambient conditions, and stored at 40° C./75% RH for 1 week and analyzed by ^1H NMR/IC.
Samples from the screen using amorphous free base Compound 1 were analysed by ^1H-NMR and DSC, and re-analysis by XRPD was also carried out after drying at 50° C./vacuum and storage at 40° C./75% RH (the same sample was dried and stored at elevated humidity).
A short description of data set [4]: Storage at 25° C./93% RH (solid-state stability). The settings on record: for Stability on storage at 25° C./93% RH: 1 week, solid form by XRPD.
Data set [5] in a line: Free base solubility assessment in solvents. Here is the method: Approximately 11 mg (0.022 mmol) portions of the free base Form 1 of Compound 1 (i.e., the compound of formula (I)) were weighed into 2 ml screw-topped HPLC vials. One of 15 solvents was added to each vial in a number of aliquots (up to 100 volumes), with shaking and if necessary with heating to 40° C., in an attempt to achieve dissolution.

Data set [6] is described as follows: Gravimetric vapour sorption (GVS). The procedure:
Sorption isotherms were obtained using a Hiden IGASorp moisture sorption analyser, controlled by CFRSorp software. The sample temperature was maintained at 25° C. by a Huber re-circulating water bath. The humidity was controlled by mixing streams of dry and wet nitrogen, with a total flow rate of 250 ml/min. The relative humidity (RH) was measured by a calibrated Vaisala RH probe (dynamic range of 0-95% RH), located near the sample. The weight change, (mass relaxation) of the sample as a function of % RH was constantly monitored by the microbalance (accuracy ±0.001 mg). Typically 10-20 mg of sample was placed in a tared mesh stainless steel basket under ambient conditions. The sample was loaded and unloaded at 40% RH and 25° C. (typical room conditions). A moisture sorption isotherm was performed as outlined below (2 scans giving 1 complete cycle). The standard isotherm was performed at 25° C. at 10% RH intervals over a 0-90% RH range.
The software uses a least squares minimisation procedure together with a model of the mass relaxation, to predict an asymptotic value. The measured mass relaxation value must be within 5% of that predicted by the software, before the next % RH value is selected. The minimum equilibration time was set to 1 hour and the maximum to 4 hours. The sample was recovered after completion of the isotherm and re-analysed by XRPD.

Where [7] appears, read: listed as Compound 1 Free Base Form 1.
[8] abbreviates: listed as amorphous free base Compound 1.

The values below come from US9481667B2, “Salts and solid forms of isoquinolinones and composition comprising and methods of using the same” (Infinity Pharmaceuticals, Inc., priority 2013, dated 2016).

Structures are written as SMILES. Converted amounts (≈) assume the structure as drawn. Counter-ions that a name gives are not always drawn.

One may read the solubility (thermodynamic) as solubility found after equilibrating the solid with the medium. For `COc1cc(-c2cccc3cc([C@H](C)Nc4nc(N)ncc4C#N)n(-c4ccccc4)c(=O)c23)ccn1` [(S)-2-amino-4-((1-(8-(2-methoxypyridin-4-yl)-1-oxo-2-phenyl-1,2-dihydroisoquinolin-3-yl)ethyl)amino)pyrimidine-5-carbonitrile], in data set [1] (pH 1.9, water, 0.5 g scale-up salts, pH of solution reported separately), the thermodynamic solubility was determined as 1.9 mg/mL. The Crystallinity after standing result in data set [2] (RT, 24 hours) was “decreases”. Further, the “Stability at ambient conditions” value in data set [2] (converts to Form 1 by hydration) is recorded as “unstable”.

Turning to `CC(=O)O.COc1cc(-c2cccc3cc([C@H](C)Nc4nc(N)ncc4C#N)n(-c4ccccc4)c(=O)c23)ccn1.COc1cc(-c2cccc3cc([C@H](C)Nc4nc(N)ncc4C#N)n(-c4ccccc4)c(=O)c23)ccn1` [Batch 2 of Form 6], in data set [3] (after 1 week), the “Stability at 40° C./75% RH” value is “Very slight changes”. The “Stability at 25° C./93% RH” value in data set [4] (after 1 week) is on record as “Very slight changes”.

Regarding `COc1cc(-c2cccc3cc([C@H](C)Nc4nc(N)ncc4C#N)n(-c4ccccc4)c(=O)c23)ccn1` [Compound 1, (S)-2-amino-4-((1-(8-(2-methoxypyridin-4-yl)-1-oxo-2-phenyl-1,2-dihydroisoquinolin-3-yl)ethyl)amino)pyrimidine-5-carbonitrile], the “solvent volumes to dissolve” value in data set [5] (2-MeTHF, free base Form 1, shaking, if necessary heating to 40° C.) is reported as 50 vol; in data set [5] (DMSO, free base Form 1, shaking, if necessary heating to 40° C.), 5 vol; in data set [5] (EtOAC, free base Form 1, did not dissolve in up to 100 vol.), > 100 vol; in data set [5] (EtOH/H2O, free base Form 1, did not dissolve in up to 100 vol.), > 100 vol; in data set [5] (EtOH, free base Form 1, did not dissolve in up to 100 vol.), > 100 vol; in data set [5] (H2O, free base Form 1, did not dissolve in up to 100 vol.), > 100 vol. Also, the “solvent volumes to dissolve” value is listed as 40 vol in data set [5] (MIBK, free base Form 1, shaking, if necessary heating to 40° C.); 10 vol in data set [5] (MeOH/anisole (50/50 v/v), free base Form 1, shaking, if necessary heating to 40° C.); 75 vol in data set [5] (MeOH, free base Form 1, shaking, if necessary heating to 40° C.); > 100 vol in data set [5] (TBME, free base Form 1, did not dissolve in up to 100 vol.); 40 vol in data set [5] (THF, free base Form 1, shaking, if necessary heating to 40° C.); > 100 vol in data set [5] (acetone, free base Form 1, did not dissolve in up to 100 vol.). Also, the “solvent volumes to dissolve” value was > 100 vol in data set [5] (acetonitrile, free base Form 1, did not dissolve in up to 100 vol.); > 100 vol in data set [5] (anisole, free base Form 1, did not dissolve in up to 100 vol.); 40 vol in data set [5] (chloroform, free base Form 1, shaking, if necessary heating to 40° C.).

For the molecule `COc1cc(-c2cccc3cc([C@H](C)Nc4nc(N)ncc4C#N)n(-c4ccccc4)c(=O)c23)ccn1` [Form 1 of the 1,2-ethanedisulfonic acid salt of Compound 1] [(S)-2-amino-4-((1-(8-(2-methoxypyridin-4-yl)-1-oxo-2-phenyl-1,2-dihydroisoquinolin-3-yl)ethyl)amino)pyrimidine-5-carbonitrile], the “XRPD post GVS (C2)” value in data set [6] (0.5 g scale-up salts) is “Unchanged”. In data set [6] (hygroscopicity, 25° C., 0-90% RH), the “GVS Single cycle” value was “Moderately hygroscopic”. In data set [3] (0.5 g scale-up salts), the “Storage 40° C./75% RH for 1 week: HPLC Purity” value was “HPLC Purity: Unchanged” and the “Storage 40° C./75% RH for 1 week: XRPD (D8)” value was “XRPD (D8): Unchanged”. Moreover, the “Stability on storage at 40° C./75% RH” value in data set [3] is “stable”. Moreover, the “Stability on storage at 40° C./75% RH” value in data set [3] (listed as mono-1,2-ethanedisulfonic acid salt) was “stable”. In data set [4] (0.5 g scale-up salts), the “Storage 25° C./93% RH for 1 week: HPLC Purity” value is on record as “HPLC Purity: Unchanged” and the “Storage 25° C./93% RH for 1 week: XRPD (D8)” value was “XRPD (D8): Unchanged”.

Take `COc1cc(-c2cccc3cc([C@H](C)Nc4nc(N)ncc4C#N)n(-c4ccccc4)c(=O)c23)ccn1` [Form 1 of the free base of Compound 1, (S)-2-amino-4-((1-(8-(2-methoxypyridin-4-yl)-1-oxo-2-phenyl-1,2-dihydroisoquinolin-3-yl)ethyl)amino)pyrimidine-5-carbonitrile]: the “RH range in which hydration to Form 3 occurs” value in data set [6] is listed as 80-90 % RH. Besides, in data set [6] (above 80% RH, listed as Free base Form 1), the “GVS: form change with humidity” value is “hydrates to a higher hydrate above 80% RH, but this re-converts to Form 1 on desorption”. Moreover, in data set [6] (loaded at 40% RH, 25° C., listed as Compound 1 Free Base Form 1), the “GVS: moisture on loading” value is recorded as 0.7 % w/w. In data set [1] (water, at pH 6.85), this molecule yielded a solubility (thermodynamic) of 0.004 mg/mL (≈ 8.17 µM). Besides, the “Stability on storage at 40° C./75% RH” value in data set [3] is “stable”; in data set [3] (setting [7]) it was “No changes in form after 1 week”; in data set [3] (listed as Free base Form 1), “did not show any changes”. The “Stability on storage at 25° C./93% RH” value is listed as “converts to Form 3” in data set [4], “Conversion to Form 3 (FIG. 31)” in data set [4] (setting [7]) and “conversion to Form 3” in data set [4] (listed as Free base Form 1).

`COc1cc(-c2cccc3cc([C@H](C)Nc4nc(N)ncc4C#N)n(-c4ccccc4)c(=O)c23)ccn1` [amorphous free base of Compound 1, (S)-2-amino-4-((1-(8-(2-methoxypyridin-4-yl)-1-oxo-2-phenyl-1,2-dihydroisoquinolin-3-yl)ethyl)amino)pyrimidine-5-carbonitrile]: in data set [3] (setting [8]), the “Stability on storage at 40° C./75% RH” value was “No changes after 1 week”. Also, the “Storage at elevated humidity” value in data set [3] (elevated humidity conditions, solid form) was “No crystallisation”. In addition, the “Stability on storage at 25° C./93% RH” value in data set [4] (setting [8]) is recorded as “No changes after 1 week”.
